Experiments:
[1] = molecular target: Mitogen-activated protein kinase 7 (Homo sapiens) (UniProt Q13164); settings: Compound concentration 1000.0 nM
[2] = molecular target: Serine/threonine-protein kinase B-raf (Homo sapiens) (UniProt P15056); settings: Compound concentration 1000.0 nM
[3] = molecular target: Serine/threonine-protein kinase DCLK1 (Homo sapiens) (UniProt O15075); settings: Compound concentration 1000.0 nM
[4] = molecular target: Insulin receptor-related protein (Homo sapiens) (UniProt P14616); settings: Compound concentration 1000.0 nM
[5] = molecular target: Misshapen-like kinase 1 (Homo sapiens) (UniProt Q8N4C8); settings: Compound concentration 1000.0 nM
[6] = molecular target: Protein kinase C theta type (Homo sapiens) (UniProt Q04759); settings: Compound concentration 1000.0 nM
[7] = molecular target: Interleukin-1 receptor-associated kinase 3 (Homo sapiens) (UniProt Q9Y616); settings: Compound concentration 1000.0 nM
[8] = molecular target: Serine/threonine-protein kinase Nek2 (Homo sapiens) (UniProt P51955); settings: Compound concentration 1000.0 nM
[9] = tested on: Phosphatidylinositol 4,5-bisphosphate 3-kinase catalytic subunit alpha isoform (Homo sapiens), P42336 [E545A]; settings: Compound concentration 1000.0 nM
[10] = molecular target: Dual specificity tyrosine-phosphorylation-regulated kinase 1B (Homo sapiens) (UniProt Q9Y463); settings: Compound concentration 1000.0 nM
[11] = tested on: eIF-2-alpha kinase GCN2 (Homo sapiens), Q9P2K8 [S808G]; settings: Compound concentration 1000.0 nM
[12] = molecular target: Nociceptin receptor (Homo sapiens, UniProt P41146); test: GPCRScan assay: inhibition of NOP; parameters: radioligand conc. used [nm] 0.5 – 2.0, parental cells HEKT
[13] = molecular target: 5-hydroxytryptamine receptor 2A (Homo sapiens, UniProt P28223); settings: Compound concentration 10.0 uM
[14] = molecular target: Tyrosine-protein kinase CSK (Homo sapiens) (UniProt P41240); settings: Compound concentration 1000.0 nM
[15] = molecular target: Mitotic checkpoint serine/threonine-protein kinase BUB1 (Homo sapiens) (UniProt O43683); settings: Compound concentration 1000.0 nM
[16] = molecular target: Cyclin-dependent kinase-like 5 (Homo sapiens) (UniProt O76039); settings: Compound concentration 1000.0 nM
[17] = molecular target: Sigma non-opioid intracellular receptor 1 (Homo sapiens, UniProt Q99720); settings: Compound concentration 10.0 uM
[18] = molecular target: Mitogen-activated protein kinase kinase kinase 12 (Homo sapiens) (UniProt Q12852); settings: Compound concentration 1000.0 nM
[19] = molecular target: Calcium/calmodulin-dependent protein kinase kinase 2 (Homo sapiens) (UniProt Q96RR4); settings: Compound concentration 1000.0 nM
[20] = molecular target: Receptor-type tyrosine-protein kinase FLT3 (Homo sapiens) (UniProt P36888); settings: Compound concentration 1000.0 nM
[21] = molecular target: Serine/threonine-protein kinase MRCK gamma (Homo sapiens) (UniProt Q6DT37); settings: Compound concentration 1000.0 nM
[22] = molecular target: Platelet-derived growth factor receptor alpha (Homo sapiens) (UniProt P16234); settings: Compound concentration 1000.0 nM
[23] = molecular target: 5-hydroxytryptamine receptor 1D (Homo sapiens) (UniProt P28221); settings: Compound concentration 10.0 uM
[24] = molecular target: 3-phosphoinositide-dependent protein kinase 1 (Homo sapiens) (UniProt O15530); settings: Compound concentration 1000.0 nM
[25] = molecular target: LIM domain kinase 1 (Homo sapiens) (UniProt P53667); settings: Compound concentration 1000.0 nM
[26] = molecular target: Ephrin type-B receptor 6 (Homo sapiens) (UniProt O15197); settings: Compound concentration 1000.0 nM
[27] = molecular target: Mitogen-activated protein kinase kinase kinase 14 (Homo sapiens) (UniProt Q99558); settings: Compound concentration 1000.0 nM
[28] = molecular target: Tyrosine-protein kinase ABL1 (Homo sapiens) (UniProt P00519); settings: Compound concentration 1000.0 nM
[29] = molecular target: Receptor-interacting serine/threonine-protein kinase 4 (Homo sapiens) (UniProt P57078); settings: Compound concentration 1000.0 nM
[30] = molecular target: Cyclin-dependent kinase 3 (Homo sapiens) (UniProt Q00526); settings: Compound concentration 1000.0 nM
[31] = molecular target: Calcium/calmodulin-dependent protein kinase type 1 (Homo sapiens) (UniProt Q14012); settings: Compound concentration 1000.0 nM
[32] = molecular target: Testis-specific serine/threonine-protein kinase 3 (Homo sapiens) (UniProt Q96PN8); settings: Compound concentration 1000.0 nM
[33] = molecular target: Insulin-like growth factor 1 receptor (Homo sapiens) (UniProt P08069); settings: Compound concentration 1000.0 nM
[34] = tested on: Tyrosine-protein kinase ABL1 (Homo sapiens), P00519 [F317L]; settings: Compound concentration 1000.0 nM
[35] = molecular target: Muscarinic acetylcholine receptor M1 (Homo sapiens) (UniProt P11229); settings: Compound concentration 10.0 uM
[36] = molecular target: Protein-tyrosine kinase 6 (Homo sapiens) (UniProt Q13882); settings: Compound concentration 1000.0 nM
[37] = molecular target: Ephrin type-B receptor 2 (Homo sapiens) (UniProt P29323); settings: Compound concentration 1000.0 nM
[38] = molecular target: Ribosomal protein S6 kinase alpha-6 (Homo sapiens) (UniProt Q9UK32); settings: Compound concentration 1000.0 nM
[39] = molecular target: Serine/threonine-protein kinase PAK 4 (Homo sapiens) (UniProt O96013); settings: Compound concentration 1000.0 nM
[40] = molecular target: Cyclin-dependent kinase 4 (Homo sapiens) (UniProt P11802); settings: Compound concentration 1000.0 nM
[41] = molecular target: STE20-like serine/threonine-protein kinase (Homo sapiens) (UniProt Q9H2G2); settings: Compound concentration 1000.0 nM
[42] = molecular target: Insulin receptor (Homo sapiens) (UniProt P06213); settings: Compound concentration 1000.0 nM
[43] = molecular target: Alpha-1D adrenergic receptor (Homo sapiens) (UniProt P25100); settings: Compound concentration 10.0 uM
[44] = molecular target: Tyrosine-protein kinase SYK (Homo sapiens) (UniProt P43405); settings: Compound concentration 1000.0 nM
[45] = molecular target: Eukaryotic translation initiation factor 2-alpha kinase 1 (Homo sapiens) (UniProt Q9BQI3); settings: Compound concentration 1000.0 nM
[46] = molecular target: Serine/threonine-protein kinase ULK2 (Homo sapiens) (UniProt Q8IYT8); settings: Compound concentration 1000.0 nM
Serine/threonine-protein kinase ULK2 (Homo sapiens), sequence (Q8IYT8 whole entry): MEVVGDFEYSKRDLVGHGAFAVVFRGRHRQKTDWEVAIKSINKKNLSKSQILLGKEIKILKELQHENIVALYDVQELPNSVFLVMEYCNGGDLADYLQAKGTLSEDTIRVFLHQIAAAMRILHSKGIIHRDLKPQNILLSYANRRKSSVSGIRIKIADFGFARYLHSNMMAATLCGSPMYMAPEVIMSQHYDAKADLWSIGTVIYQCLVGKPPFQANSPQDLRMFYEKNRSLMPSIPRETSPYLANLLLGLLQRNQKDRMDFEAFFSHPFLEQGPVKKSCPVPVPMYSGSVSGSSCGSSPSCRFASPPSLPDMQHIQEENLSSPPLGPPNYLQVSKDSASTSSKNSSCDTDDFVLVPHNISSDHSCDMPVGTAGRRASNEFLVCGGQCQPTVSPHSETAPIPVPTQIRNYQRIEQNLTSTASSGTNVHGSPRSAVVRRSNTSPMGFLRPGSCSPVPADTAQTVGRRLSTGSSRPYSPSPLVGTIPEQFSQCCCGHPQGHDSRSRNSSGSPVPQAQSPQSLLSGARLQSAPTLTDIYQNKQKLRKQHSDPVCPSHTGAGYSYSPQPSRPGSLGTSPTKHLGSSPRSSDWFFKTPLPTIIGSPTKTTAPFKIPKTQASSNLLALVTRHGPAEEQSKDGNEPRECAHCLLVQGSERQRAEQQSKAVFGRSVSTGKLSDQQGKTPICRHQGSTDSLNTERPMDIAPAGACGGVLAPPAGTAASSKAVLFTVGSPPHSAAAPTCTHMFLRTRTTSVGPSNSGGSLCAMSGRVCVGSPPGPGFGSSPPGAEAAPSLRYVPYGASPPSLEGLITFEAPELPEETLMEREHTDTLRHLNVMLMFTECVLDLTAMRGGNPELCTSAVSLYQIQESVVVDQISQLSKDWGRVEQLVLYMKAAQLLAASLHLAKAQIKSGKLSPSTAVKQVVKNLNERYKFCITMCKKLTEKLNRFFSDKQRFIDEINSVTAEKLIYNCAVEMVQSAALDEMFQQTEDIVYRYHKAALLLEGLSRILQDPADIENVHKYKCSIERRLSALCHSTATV

Nociceptin receptor, sequence (P41146 whole entry): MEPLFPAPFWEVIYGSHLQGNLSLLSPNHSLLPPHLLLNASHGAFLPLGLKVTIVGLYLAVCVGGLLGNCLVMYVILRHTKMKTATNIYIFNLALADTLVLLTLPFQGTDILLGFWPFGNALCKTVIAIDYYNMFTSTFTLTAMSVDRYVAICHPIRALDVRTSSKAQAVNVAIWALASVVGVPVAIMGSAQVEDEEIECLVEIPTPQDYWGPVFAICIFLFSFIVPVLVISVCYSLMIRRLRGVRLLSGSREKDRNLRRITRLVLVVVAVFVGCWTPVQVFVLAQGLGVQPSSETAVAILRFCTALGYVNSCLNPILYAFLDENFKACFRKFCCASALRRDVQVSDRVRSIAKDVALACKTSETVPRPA
Tyrosine-protein kinase ABL1 (Homo sapiens), sequence (P00519 whole entry): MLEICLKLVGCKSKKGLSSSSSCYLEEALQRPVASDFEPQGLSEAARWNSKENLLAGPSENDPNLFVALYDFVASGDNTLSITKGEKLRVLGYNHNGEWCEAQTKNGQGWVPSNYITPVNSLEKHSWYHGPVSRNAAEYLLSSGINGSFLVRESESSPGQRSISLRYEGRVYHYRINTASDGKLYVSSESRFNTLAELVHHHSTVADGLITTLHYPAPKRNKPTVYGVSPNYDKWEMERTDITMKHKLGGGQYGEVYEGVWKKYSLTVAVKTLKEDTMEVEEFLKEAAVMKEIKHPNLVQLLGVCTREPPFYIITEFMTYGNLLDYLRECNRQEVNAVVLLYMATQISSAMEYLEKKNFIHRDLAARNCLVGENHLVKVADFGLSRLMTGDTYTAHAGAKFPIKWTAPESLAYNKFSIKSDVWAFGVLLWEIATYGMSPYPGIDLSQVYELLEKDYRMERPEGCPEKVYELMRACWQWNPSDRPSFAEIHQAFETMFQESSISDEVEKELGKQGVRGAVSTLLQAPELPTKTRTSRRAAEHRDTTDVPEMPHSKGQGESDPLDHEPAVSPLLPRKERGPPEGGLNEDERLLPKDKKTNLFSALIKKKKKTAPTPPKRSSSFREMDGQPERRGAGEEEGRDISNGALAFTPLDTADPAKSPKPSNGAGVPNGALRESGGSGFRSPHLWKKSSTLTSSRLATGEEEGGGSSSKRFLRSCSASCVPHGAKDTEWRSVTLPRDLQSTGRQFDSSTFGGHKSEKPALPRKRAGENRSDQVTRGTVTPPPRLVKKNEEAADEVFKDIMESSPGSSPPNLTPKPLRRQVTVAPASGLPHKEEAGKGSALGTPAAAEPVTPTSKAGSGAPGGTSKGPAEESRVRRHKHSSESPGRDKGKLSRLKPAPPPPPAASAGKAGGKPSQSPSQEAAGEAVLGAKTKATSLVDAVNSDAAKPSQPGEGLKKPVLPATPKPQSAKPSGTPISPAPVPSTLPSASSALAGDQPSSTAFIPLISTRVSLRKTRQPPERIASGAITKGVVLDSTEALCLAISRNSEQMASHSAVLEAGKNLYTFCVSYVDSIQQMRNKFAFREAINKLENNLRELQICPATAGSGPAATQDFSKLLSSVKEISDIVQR
Interleukin-1 receptor-associated kinase 3 (Homo sapiens), sequence (Q9Y616 whole entry): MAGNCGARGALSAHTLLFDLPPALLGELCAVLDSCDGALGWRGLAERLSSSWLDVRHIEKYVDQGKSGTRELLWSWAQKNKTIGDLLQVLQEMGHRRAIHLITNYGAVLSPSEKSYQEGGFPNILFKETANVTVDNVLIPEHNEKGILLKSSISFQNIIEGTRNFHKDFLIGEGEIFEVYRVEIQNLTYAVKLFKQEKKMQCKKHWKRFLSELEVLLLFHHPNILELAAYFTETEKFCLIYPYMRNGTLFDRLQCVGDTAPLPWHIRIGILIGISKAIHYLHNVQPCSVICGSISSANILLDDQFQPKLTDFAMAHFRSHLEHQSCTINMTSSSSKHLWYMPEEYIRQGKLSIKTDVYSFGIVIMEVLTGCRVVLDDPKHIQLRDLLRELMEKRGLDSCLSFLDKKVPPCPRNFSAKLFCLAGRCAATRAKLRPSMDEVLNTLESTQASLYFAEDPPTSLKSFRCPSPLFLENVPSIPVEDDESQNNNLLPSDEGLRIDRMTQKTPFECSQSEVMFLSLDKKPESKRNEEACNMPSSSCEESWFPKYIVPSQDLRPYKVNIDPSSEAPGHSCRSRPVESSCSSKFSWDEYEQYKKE
Serine/threonine-protein kinase MRCK gamma (Homo sapiens), sequence (Q6DT37 whole entry): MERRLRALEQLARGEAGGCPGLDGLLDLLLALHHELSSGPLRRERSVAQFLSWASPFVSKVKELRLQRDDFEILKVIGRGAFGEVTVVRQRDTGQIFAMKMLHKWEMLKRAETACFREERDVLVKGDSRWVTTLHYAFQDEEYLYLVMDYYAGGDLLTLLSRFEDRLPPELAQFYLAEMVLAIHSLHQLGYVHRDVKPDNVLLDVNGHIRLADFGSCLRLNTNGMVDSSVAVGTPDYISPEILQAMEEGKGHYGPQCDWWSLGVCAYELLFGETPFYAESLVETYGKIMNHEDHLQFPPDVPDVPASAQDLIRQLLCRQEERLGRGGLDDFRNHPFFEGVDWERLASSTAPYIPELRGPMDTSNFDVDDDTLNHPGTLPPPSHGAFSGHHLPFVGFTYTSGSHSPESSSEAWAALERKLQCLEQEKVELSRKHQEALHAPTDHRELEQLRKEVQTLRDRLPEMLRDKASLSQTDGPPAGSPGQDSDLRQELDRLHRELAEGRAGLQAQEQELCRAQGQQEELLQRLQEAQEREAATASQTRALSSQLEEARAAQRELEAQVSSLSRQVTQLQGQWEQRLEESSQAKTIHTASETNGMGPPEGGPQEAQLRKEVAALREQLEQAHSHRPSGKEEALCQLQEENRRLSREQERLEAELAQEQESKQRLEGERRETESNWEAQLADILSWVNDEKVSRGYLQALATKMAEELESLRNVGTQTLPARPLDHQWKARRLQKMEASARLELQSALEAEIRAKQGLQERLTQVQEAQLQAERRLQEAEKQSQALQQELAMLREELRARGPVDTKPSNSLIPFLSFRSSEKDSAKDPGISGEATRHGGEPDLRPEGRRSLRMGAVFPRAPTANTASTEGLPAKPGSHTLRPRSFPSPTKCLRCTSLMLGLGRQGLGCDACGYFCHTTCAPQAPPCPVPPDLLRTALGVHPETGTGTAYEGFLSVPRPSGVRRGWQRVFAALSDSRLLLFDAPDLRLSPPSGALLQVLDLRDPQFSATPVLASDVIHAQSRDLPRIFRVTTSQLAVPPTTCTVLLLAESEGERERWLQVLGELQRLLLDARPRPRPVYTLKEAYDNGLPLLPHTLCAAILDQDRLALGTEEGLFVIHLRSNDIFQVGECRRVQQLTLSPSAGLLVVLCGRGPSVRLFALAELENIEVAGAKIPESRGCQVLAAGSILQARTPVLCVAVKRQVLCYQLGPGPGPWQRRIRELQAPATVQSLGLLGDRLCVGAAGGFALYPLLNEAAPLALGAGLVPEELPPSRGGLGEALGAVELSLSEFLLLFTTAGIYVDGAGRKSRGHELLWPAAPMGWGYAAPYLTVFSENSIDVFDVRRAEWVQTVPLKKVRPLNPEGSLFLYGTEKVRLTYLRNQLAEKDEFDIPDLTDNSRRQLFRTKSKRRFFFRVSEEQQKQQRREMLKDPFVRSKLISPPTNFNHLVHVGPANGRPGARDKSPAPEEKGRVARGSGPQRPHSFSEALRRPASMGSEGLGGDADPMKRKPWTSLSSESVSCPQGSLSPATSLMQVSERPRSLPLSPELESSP
Tyrosine-protein kinase ABL1 (Homo sapiens), P00519 [F317L], sequence (P00519 whole entry F317L): as the sequence (P00519 whole entry) above, with F317L counted along it
Cyclin-dependent kinase 4 (Homo sapiens), sequence (P11802 whole entry): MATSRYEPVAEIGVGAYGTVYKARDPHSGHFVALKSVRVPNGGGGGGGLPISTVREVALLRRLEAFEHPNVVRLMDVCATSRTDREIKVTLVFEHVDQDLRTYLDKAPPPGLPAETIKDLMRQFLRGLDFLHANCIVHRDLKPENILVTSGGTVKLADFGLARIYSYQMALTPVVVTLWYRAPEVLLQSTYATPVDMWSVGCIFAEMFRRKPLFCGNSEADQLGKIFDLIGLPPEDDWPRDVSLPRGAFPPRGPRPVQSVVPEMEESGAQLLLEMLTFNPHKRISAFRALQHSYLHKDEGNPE

CC(=O)Nc1c(C(C)=O)c(=O)n(C)c2nc(-c3ccc(Cl)cc3Cl)c(-c3ccc(Cl)cc3)cc12 [NAPHTHYRIDINONE]
residual activity [1]: 100%
residual activity [2]: 100%
residual activity [3]: 100%
residual activity [4]: 100%
residual activity [5]: 100%
residual activity [6]: 100%
residual activity [7]: 95%
residual activity [8]: 100%
residual activity [9]: 85%
residual activity [10]: 35%
residual activity [11]: 48%
Ki [12]: 10 µM
pKi [12]: 5
inhibition [13]: 21.8%
residual activity [14]: 100%
residual activity [15]: 92%
residual activity [16]: 100%
inhibition [17]: 50%
residual activity [18]: 100%
residual activity [19]: 100%
residual activity [20]: 100%
residual activity [21]: 100%
residual activity [22]: 100%
inhibition [23]: 32.9%
residual activity [24]: 100%
residual activity [25]: 100%
residual activity [26]: 100%
residual activity [27]: 92%
residual activity [28]: 81%
residual activity [29]: 93%
residual activity [30]: 100%
residual activity [31]: 100%
residual activity [32]: 100%
residual activity [33]: 100%
residual activity [34]: 100%
inhibition [35]: -3.7%
residual activity [36]: 100%
residual activity [37]: 100%
residual activity [38]: 88%
residual activity [39]: 100%
residual activity [40]: 87%
residual activity [41]: 100%
residual activity [42]: 100%
inhibition [43]: -3.09%
residual activity [44]: 96%
residual activity [45]: 68%
residual activity [46]: 100%

CC(=O)c1c(NS(C)(=O)=O)c2cc(-c3ccc(Cl)cc3)c(-c3ccc(Cl)cc3Cl)nc2n(C)c1=O [MRL-CB1-NC]
residual activity [1]: 92%
residual activity [2]: 90%
residual activity [3]: 98%
residual activity [4]: 93%
residual activity [5]: 100%
residual activity [6]: 100%
residual activity [7]: 100%
residual activity [8]: 100%
residual activity [9]: 100%
residual activity [10]: 100%
residual activity [11]: 100%
inhibition ([12]; Compound concentration 10.0 uM): -2.4%
inhibition [13]: 78.8%
residual activity [14]: 100%
residual activity [15]: 76%
residual activity [16]: 94%
inhibition [17]: -7.46%
residual activity [18]: 100%
residual activity [19]: 100%
residual activity [20]: 96%
residual activity [21]: 100%
residual activity [22]: 88%
inhibition [23]: 68.5%
residual activity [24]: 100%
residual activity [25]: 88%
residual activity [26]: 100%
residual activity [27]: 63%
residual activity [28]: 92%
residual activity [29]: 61%
residual activity [30]: 100%
residual activity [31]: 100%
residual activity [32]: 100%
residual activity [33]: 100%
residual activity [34]: 89%
inhibition [35]: 3.28%
residual activity [36]: 100%
residual activity [37]: 100%
residual activity [38]: 76%
residual activity [39]: 92%
residual activity [40]: 63%
residual activity [41]: 100%
residual activity [42]: 73%
inhibition [43]: 15.9%
residual activity [44]: 100%
residual activity [45]: 83%
residual activity [46]: 97%

Source: ChEMBL document CHEMBL4507287, “Data for DCP probe MRL-650” (2021)
